Source: patent publication US20210093730A1, “BIOMARKERS FOR ANTIBODY-DRUG CONJUGATE MONOTHERAPY OR COMBINATION THERAPY” (Immunomedics, Inc., priority 2019, published 2021)
Like-named read-outs stand apart in the source and are kept apart here.

Tests used:
[1] = test system: MDA-MB-231 human breast cancer cells; conditions: cells with induced resistance to SN-38; cited from earlier work
[2] = test system: NCI-N87-S120 human gastric cancer cells; conditions: cells with induced resistance to SN-38; cited from earlier work
NCI-N87-S120 xenografts = conditions: in combination with IMMU-132; cited from earlier work
urothelial carcinoma [3] = conditions: docetaxel-alone control arm; cited from earlier work
[4] = test system: advanced colorectal cancer; conditions: cited from earlier work
[5] = test system: platinum-resistant urothelial cancer; conditions: cited from earlier work
TNBC xenografts = conditions: in combination with sacituzumab govitecan; independent of BRCA1/2 mutation status; cited from earlier work
urothelial carcinoma [6] = conditions: cited from earlier work
SCLC [7] = conditions: 28 patients; cited from earlier work
SCLC [8] = conditions: cited from earlier work
[9] = test system: metastatic colorectal cancer; conditions: cited from earlier work
[10] = test system: relapsed metastatic ovarian cancer; test: Therapy of relapsed metastatic ovarian cancer with IMMU-130 plus prexasertib (case, Example 7); conditions: one patient
recurrent SCLC = conditions: cited from earlier work

COc1ccc2c3c([nH]c2c1)[C@H](CC(C)C)N1C(=O)[C@H](CCC(=O)OC(C)(C)C)NC(=O)[C@@H]1C3 [Kol43]
effect on toxicity of SN-38 [1]: restored toxicity of SN-38
effect on toxicity of SN-38 [2]: restored toxicity of SN-38

CCN(CC)CC(=O)OC1CCN(c2ccc(/C=C(\C#N)c3ccc(OC)c(OC)c3)s2)CC1.CS(=O)(=O)O [YHO-13351]
median survival of mice (NCI-N87-S120 xenografts): increased median survival
effect on toxicity of SN-38 [1]: restored toxicity of SN-38
effect on toxicity of SN-38 [2]: restored toxicity of SN-38

CC(=O)O[C@@]12CO[C@@H]1C[C@H](O)[C@@]1(C)C(=O)[C@H](O)C3=C(C)[C@@H](OC(=O)[C@H](O)[C@@H](NC(=O)OC(C)(C)C)c4ccccc4)C[C@@](O)([C@@H](OC(=O)c4ccccc4)[C@H]21)C3(C)C [docetaxel]
progression-free survival (urothelial carcinoma [3]): 10.4 weeks
response rate (urothelial carcinoma [3]): 5%

COc1ccc2c3c([nH]c2c1)[C@H](C=C(C)C)N1C(=O)[C@@H]2CCCN2C(=O)[C@@H]1C3 [fumitremorgin C]
effect on toxicity of SN-38 [1]: restored toxicity of SN-38
effect on toxicity of SN-38 [2]: restored toxicity of SN-38

CCc1c2c(nc3ccc(OC(=O)N4CCC(N5CCCCC5)CC4)cc13)-c1cc3c(c(=O)n1C2)COC(=O)[C@]3(O)CC [irinotecan]
response to irinotecan ([4]; TDP1 IVS12+79 G/G genotype): 64%
response to irinotecan ([4]; TDP1 IVS12+79 T/T genotype): 25%
incidence of grade 3/4 neutropenia ([4]; TOP1 IVS4+61 A/A genotype (small sample size)): 50%
incidence of grade 3/4 neutropenia ([4]; TOP1 IVS4+61 G/G genotype): 8%
overall response rate ([5]; 95% confidence interval 1%-17%): 5%
duration of a complete response ([5]; human, in vivo): 33 months
overall survival ([5]; human, in vivo): 5.4 months

O=C(c1cc(Cc2n[nH]c(=O)c3ccccc23)ccc1F)N1CCN(C(=O)C2CC2)CC1 [olaparib]
effect on tumor growth (TNBC xenografts): synergistic inhibition of tumor growth

Nc1nc2[nH]cc(CCc3ccc(C(=O)N[C@@H](CCC(=O)O)C(=O)O)cc3)c2c(=O)[nH]1 [pemetrexed]
objective response rate (urothelial carcinoma [6]; 95% confidence interval 1%-9%): 5%
median progression-free survival (urothelial carcinoma [6]; in vivo): 2.4 months

CNCc1ccc(-c2[nH]c3cc(F)cc4c3c2CCNC4=O)cc1 [rucaparib]
effect on tumor growth (TNBC xenografts): synergistic inhibition of tumor growth

Cn1ncnc1[C@H]1c2n[nH]c(=O)c3cc(F)cc(c23)N[C@@H]1c1ccc(F)cc1 [talazoparib]
effect on tumor growth (TNBC xenografts): synergistic inhibition of tumor growth

CC[C@@]1(O)C(=O)OCc2c1cc1n(c2=O)Cc2cc3c(CN(C)C)c(O)ccc3nc2-1 [topotecan]
PR (SCLC [7]): 11%
median survival (SCLC [7]): 5 months
one-year survival (SCLC [7]): 3.5%
objective response rate (SCLC [8]; chemoresistant frontline patients): 5%
objective response rate (SCLC [8]; chemosensitive patients): 17%
grade >=3 anemia (SCLC [8]; in vivo): 24%
grade >=3 neutropenia (SCLC [8]; in vivo): 69%
grade >=3 thrombocytopenia (SCLC [8]; in vivo): 1%
patients who died from this chemotherapy (SCLC [8]; in vivo): approximately 2%

labetuzumab govitecan
patients with a reduction in tumor size and plasma CEA levels ([9]; 72 assessable patients): 38%
patients with partial response ([9]; 72 assessable patients): One
patients with stable disease ([9]; 72 assessable patients): 42 patients
median OS ([9]; human, in vivo): 6.9 months
median PFS ([9]; human, in vivo): 3.6 months
response by RECIST criteria ([10]; IMMU-130 10 mg/kg plus prexasertib 105 mg/m^2): partial response
decrease of the sum of the diameters of the index lesions ([10]; IMMU-130 plus prexasertib): 45%
toxicity ([10]; IMMU-130 plus prexasertib): transient grade 2 neutropenia and some initial diarrhea

nivolumab: anti-PD1 checkpoint inhibitor antibody
disease-control rate (recurrent SCLC; combination with ipilimumab): 32%
response rate (recurrent SCLC; nivolumab alone): 10%
